Test results taken from paper PMC4303209, “A novel phosphatidylinositol 3-kinase (PI3K) inhibitor directs a potent FOXO-dependent, p53-independent cell cycle arrest phenotype characterized by the differential induction of a subset of FOXO-regulated genes” (Breast Cancer Research : BCR, 2014).

Test system: MCF-7 breast cancer cells
Test: Microarray gene expression analysis (Agilent whole human genome 4 x 44K; compound vs DMSO, LIMMA log2 fold change)
Type: cell-based
Conditions: Apoptosis genes

Cn1ncc2c(N3CCOCC3)nc(-c3cccc(O)c3)nc21 [ETP-45658]
CTNNA1 log2FC (Gene 1495): 0.398
CTNNB1 log2FC (Gene 1499): 0.236
CTSB log2FC (Gene 1508): -0.231
CTSH log2FC (Gene 1512): -0.192
CTSL log2FC (Gene 1514): 0.446
CX3CR1 log2FC (Gene 1524): 0.181
CYLD log2FC (Gene 1540): 0.499
DAB2 log2FC (Gene 1601): -0.232
DAD1 log2FC (Gene 1603): -0.542
DAP log2FC (Gene 1611): -0.178
DAPK1 log2FC (Gene 1612): 0.238
DAPK3 log2FC (Gene 1613): -0.132
DBH log2FC (Gene 1621): -0.059
DCC log2FC (Gene 1630): 0.044
GADD45A log2FC (Gene 1647): -0.416
DDIT3 log2FC (Gene 1649): 2.364
DDX3X log2FC (Gene 1654): -1.156
DDX5 log2FC (Gene 1655): -0.656
DFFA log2FC (Gene 1676): -0.316
DFNA5 log2FC (Gene 1687): 0.156
DHCR24 log2FC (Gene 1718): -0.643
DHODH log2FC (Gene 1723): -0.210
NQO1 log2FC (Gene 1728): 0.303
DLX1 log2FC (Gene 1745): -0.429
DNASE1 log2FC (Gene 1773): 0.250
DNASE1L3 log2FC (Gene 1776): -0.141
DNASE2 log2FC (Gene 1777): 0.536
DOCK1 log2FC (Gene 1793): 0.462
DPEP1 log2FC (Gene 1800): -0.068
ATN1 log2FC (Gene 1822): -0.501
DSG1 log2FC (Gene 1828): -0.456
DSG2 log2FC (Gene 1829): 0.346
DSG3 log2FC (Gene 1830): -0.092
TSC22D3 log2FC (Gene 1831): 0.689
DSP log2FC (Gene 1832): 0.613
DUSP1 log2FC (Gene 1843): -0.931
DUSP2 log2FC (Gene 1844): -2.124
DUSP6 log2FC (Gene 1848): -2.175
E2F1 log2FC (Gene 1869): -0.356
E2F2 log2FC (Gene 1870): -0.581
ECT2 log2FC (Gene 1894): 1.058
EDN1 log2FC (Gene 1906): 0.169
EDNRA log2FC (Gene 1909): -0.061
EDNRB log2FC (Gene 1910): -0.075
EEF1A2 log2FC (Gene 1917): -0.382
EFNA5 log2FC (Gene 1946): -0.086
EGFR log2FC (Gene 1956): 0.311
EGR1 log2FC (Gene 1958): -3.897
EGR2 log2FC (Gene 1959): -0.340
EPHA2 log2FC (Gene 1969): -2.195
EIF5A log2FC (Gene 1984): -0.137
ENDOG log2FC (Gene 2021): -0.357
EP300 log2FC (Gene 2033): -0.215
EPHA7 log2FC (Gene 2045): -0.083
CLN8 log2FC (Gene 2055): -0.161
EPO log2FC (Gene 2056): -0.146
ERBB3 log2FC (Gene 2065): 0.557
ERBB4 log2FC (Gene 2066): 0.141
ERCC2 log2FC (Gene 2068): -0.566
ERCC3 log2FC (Gene 2071): -0.084
ERCC5 log2FC (Gene 2073): 0.896
ERCC6 log2FC (Gene 2074): 0.369
ERN1 log2FC (Gene 2081): -0.168
ESR1 log2FC (Gene 2099): -0.121
ESR2 log2FC (Gene 2100): -0.067
ETS1 log2FC (Gene 2113): -0.590
EYA2 log2FC (Gene 2139): -0.248
F2R log2FC (Gene 2149): 0.260
F3 log2FC (Gene 2152): -0.164
PTK2B log2FC (Gene 2185): 0.101
FCER1G log2FC (Gene 2207): -0.662
FGD1 log2FC (Gene 2245): -0.405
FGF4 log2FC (Gene 2249): -0.171
FGF8 log2FC (Gene 2253): -0.131
FGF10 log2FC (Gene 2255): 0.033
FGFR1 log2FC (Gene 2260): -0.387
FGFR3 log2FC (Gene 2261): -0.382
FGFR2 log2FC (Gene 2263): 1.543
FHIT log2FC (Gene 2272): -0.370
FHL2 log2FC (Gene 2274): -0.173
FOXC1 log2FC (Gene 2296): -0.876
FOXC2 log2FC (Gene 2303): -0.613
FLT3 log2FC (Gene 2322): 0.165
FLT4 log2FC (Gene 2324): -0.341
FNTA log2FC (Gene 2339): 1.051
FXN log2FC (Gene 2395): -0.579
FRZB log2FC (Gene 2487): 0.110
FYN log2FC (Gene 2534): -0.127
G6PD log2FC (Gene 2539): -0.236
GABRA5 log2FC (Gene 2558): 0.036
GABRB2 log2FC (Gene 2561): -0.066
GABRB3 log2FC (Gene 2562): 0.054
GAS1 log2FC (Gene 2619): 0.711
GAS2 log2FC (Gene 2620): 0.183
GATA1 log2FC (Gene 2623): -0.041
GATA3 log2FC (Gene 2625): -0.140
GDNF log2FC (Gene 2668): 0.348
B4GALT1 log2FC (Gene 2683): 0.129
GJA1 log2FC (Gene 2697): -0.390
GCLC log2FC (Gene 2729): 1.033
GLI3 log2FC (Gene 2737): 0.306
GLO1 log2FC (Gene 2739): 0.300
GML log2FC (Gene 2765): -0.233
GNB1 log2FC (Gene 2782): -0.075
GNGT1 log2FC (Gene 2792): 0.035
GNRH1 log2FC (Gene 2796): 0.243
SFN log2FC (Gene 2810): -1.182
GPLD1 log2FC (Gene 2822): -0.136
CXCR3 log2FC (Gene 2833): -0.730
GRK5 log2FC (Gene 2869): 0.091
MKNK2 log2FC (Gene 2872): -0.750
GPX1 log2FC (Gene 2876): 0.224
GRID2 log2FC (Gene 2895): -0.054
GRIK2 log2FC (Gene 2898): 0.090
GRIK5 log2FC (Gene 2901): -0.286
GRIN1 log2FC (Gene 2902): -0.518
GRIN2A log2FC (Gene 2903): -0.037
NR3C1 log2FC (Gene 2908): 1.303
GRM4 log2FC (Gene 2914): -0.041
PDIA3 log2FC (Gene 2923): -0.131
GSK3A log2FC (Gene 2931): -0.246
GSK3B log2FC (Gene 2932): -0.607
GSN log2FC (Gene 2934): -0.206
GSTP1 log2FC (Gene 2950): 0.120
MSH6 log2FC (Gene 2956): 0.235
GZMH log2FC (Gene 2999): -0.228
GZMA log2FC (Gene 3001): -0.081
GZMB log2FC (Gene 3002): -0.203
GZMM log2FC (Gene 3004): -0.523
H1F0 log2FC (Gene 3005): 0.826
HCK log2FC (Gene 3055): -0.046
HDAC1 log2FC (Gene 3065): -0.487
HDAC2 log2FC (Gene 3066): 0.164
HELLS log2FC (Gene 3070): 0.388
NCKAP1L log2FC (Gene 3071): 0.079
HGF log2FC (Gene 3082): -0.369
NRG1 log2FC (Gene 3084): -1.147
HIC1 log2FC (Gene 3090): -0.118
HIF1A log2FC (Gene 3091): 0.141
HIP1 log2FC (Gene 3092): -0.264
HINT1 log2FC (Gene 3094): 0.229
HK2 log2FC (Gene 3099): -1.193
HMGB1 log2FC (Gene 3146): 0.513
HMGB2 log2FC (Gene 3148): 1.232
HMGCR log2FC (Gene 3156): 0.305
HMOX1 log2FC (Gene 3162): 1.167
NR4A1 log2FC (Gene 3164): -0.616
HOXA5 log2FC (Gene 3202): 0.402
HOXA13 log2FC (Gene 3209): 0.081
HRAS log2FC (Gene 3265): -0.664
HRG log2FC (Gene 3273): 0.066
PRMT2 log2FC (Gene 3275): 0.361
HSPA1A log2FC (Gene 3303): -2.764
HSPA5 log2FC (Gene 3309): -0.358
HSPB1 log2FC (Gene 3315): -0.158
HSP90AA1 log2FC (Gene 3320): 1.066
HSP90AB1 log2FC (Gene 3326): -0.153
